The experiment deals with Plasmodium berghei. Nature of the experiment: Luciferase/luciferin-expressing antifolate-resistant parasites were used to infect a culture of HepG2 cells that were pre-incubated with compounds. Infected hepatocytes emit light due to the luciferase reaction. Assay results are presented as the percent inhibition of light emission compared to control. […]. To be noted: sporozoite; for IC90: read-out: LUCIFERASE INFECTION ASSAY - IC90. Format: functional.

Where only a bound is given, the exact number is not on record here.

Usually IC50 stands for the concentration that inhibits the measured activity by half. Broadly, the IC90 is the concentration at which the effect reaches the 90% level. In the case of `CCOC(=O)CN1N=C(/C=C/c2ccc(C(C)C)cc2)CCC1=O`, the IC90 is > 10 µM. Further, the IC50 (HEPG2TOX_HILL_SLOPE 1.7, HEPG2TOX_R_SQUARED 0.981, read-out: LUCIFERASE INFECTION ASSAY - IC50) is > 10 µM.

In the case of `COc1ccc(-c2cnc3ccc(NCC4CC4)nn23)cc1OC`, the IC90 was 2.25 µM. The IC50 (HEPG2TOX_HILL_SLOPE 1.71, HEPG2TOX_R_SQUARED 0.949, PBLUC_HILL_SLOPE 2.62, PBLUC_R_SQUARED 0.845, read-out: LUCIFERASE INFECTION ASSAY - IC50) turned out to be 0.972 µM.

With `CCCn1nc(C(=O)NCCc2ccc(-n3cccn3)cc2)c2ccccc2c1=O`, the IC90 stood at 4.06 µM. In addition, the half-inhibitory concentration (IC50) (HEPG2TOX_HILL_SLOPE 1.69, HEPG2TOX_R_SQUARED 0.716, PBLUC_HILL_SLOPE 8.19, PBLUC_R_SQUARED 0.628, read-out: LUCIFERASE INFECTION ASSAY - IC50) turned out to be 3.1 µM.

For `Cc1ccc2nc(NC(=O)c3cccc(F)c3)c(C(=O)NC3CCCCC3)n2c1`, the IC90 came to 0.924 µM. The IC50 (HEPG2TOX_HILL_SLOPE 1.74, HEPG2TOX_R_SQUARED 0.865, PBLUC_HILL_SLOPE 15.6, PBLUC_R_SQUARED 0.75, read-out: LUCIFERASE INFECTION ASSAY - IC50) was 0.803 µM.

Regarding `COc1cc(OC)cc(-c2cnc3cnc(-c4ccccc4C)cn23)c1`, the IC90 came out at 2.62 µM. In addition, the IC50 (HEPG2TOX_HILL_SLOPE 1.68, HEPG2TOX_R_SQUARED 0.933, PBLUC_HILL_SLOPE 2.21, PBLUC_R_SQUARED 0.835, read-out: LUCIFERASE INFECTION ASSAY - IC50) came to 0.97 µM.

`O=C(C1CC1)N1CCc2nc(NCc3cccc(Oc4ccccc4)c3)ncc2C1`: the IC90 was found to be 7.02 µM. The IC50 (HEPG2TOX_HILL_SLOPE 1.68, HEPG2TOX_R_SQUARED 0.88, PBLUC_HILL_SLOPE 2.35, PBLUC_R_SQUARED 0.234, read-out: LUCIFERASE INFECTION ASSAY - IC50) was 2.75 µM.

Regarding `CCN1C(=O)N(CCCc2cccnc2)C(=O)C12CCN(Cc1ccc3c(c1)Cc1ccccc1-3)CC2`, the IC90 was determined as 2.58 µM. Moreover, the IC50 (HEPG2TOX_HILL_SLOPE 1.68, HEPG2TOX_R_SQUARED 0.934, PBLUC_HILL_SLOPE 11.7, PBLUC_R_SQUARED 0.742, read-out: LUCIFERASE INFECTION ASSAY - IC50) was found to be 2.14 µM.

As to `N#Cc1ncn(-c2nc(-c3ccccn3)nc3sc(-c4ccccc4)cc23)n1`, the IC90 turned out to be 7.91 µM. The IC50 (HEPG2TOX_HILL_SLOPE 1.72, HEPG2TOX_R_SQUARED 0.411, PBLUC_HILL_SLOPE 3.83, PBLUC_R_SQUARED 0.832, read-out: LUCIFERASE INFECTION ASSAY - IC50) stood at 4.46 µM.

Turning to `Cc1ccc(-c2csc(NC(=O)/C=C/c3cnn(C)c3)n2)o1`, the IC90 worked out at 4.35 µM. Where the note is “HEPG2TOX_HILL_SLOPE 1.69, HEPG2TOX_R_SQUARED 0.984, PBLUC_HILL_SLOPE 1.61, PBLUC_R_SQUARED 0.8, read-out: LUCIFERASE INFECTION ASSAY - IC50”, the IC50 was 1.11 µM.

For the molecule `CC(C)c1ccc(Nc2nccc3nc(-c4cccc(C(C)C)c4)[nH]c23)cc1`, the IC90 was > 10 µM. Further, the IC50 (HEPG2TOX_HILL_SLOPE 1.74, HEPG2TOX_R_SQUARED 0.684, PBLUC_HILL_SLOPE 1.1, PBLUC_R_SQUARED 0.805, read-out: LUCIFERASE INFECTION ASSAY - IC50) came out at 2.41 µM.

For `COc1nc2c(c(-c3ccc(SC)cc3)c1C#N)Cc1ccccc1-2`, the IC90 is > 9.58 µM. Besides, the IC50 (HEPG2TOX_HILL_SLOPE 1.73, HEPG2TOX_R_SQUARED 0.894, PBLUC_HILL_SLOPE 2.49, PBLUC_R_SQUARED 0.21, read-out: LUCIFERASE INFECTION ASSAY - IC50) was 5.33 µM.

On to `COc1ccc(C(=O)N(c2nc3ccccc3s2)c2c(C)cccc2C)cc1`, for which the IC90 is > 10 µM. Besides, the IC50 (HEPG2TOX_HILL_SLOPE 1.69, HEPG2TOX_R_SQUARED 0.759, PBLUC_HILL_SLOPE 12.9, PBLUC_R_SQUARED 0.198, read-out: LUCIFERASE INFECTION ASSAY - IC50) was 9.04 µM.

As for `N#Cc1ccc(C(=O)Nc2nc3ccc(SC(F)F)cc3s2)cc1`, the IC90 came to 3.39 µM. Also, the IC50 (HEPG2TOX_HILL_SLOPE 1.69, HEPG2TOX_R_SQUARED 0.978, PBLUC_HILL_SLOPE 16.3, PBLUC_R_SQUARED 0.469, read-out: LUCIFERASE INFECTION ASSAY - IC50) was found to be 2.96 µM.

As to `Cc1c(C)c(C)c(S(=O)(=O)Nc2ccc3c[nH]nc3c2)c(C)c1C`, the IC90 is > 10 µM. Further, the IC50 (HEPG2TOX_HILL_SLOPE 1.73, HEPG2TOX_R_SQUARED 0.711, PBLUC_HILL_SLOPE 1.55, PBLUC_R_SQUARED 0.469, read-out: LUCIFERASE INFECTION ASSAY - IC50) came out at 4.27 µM.

Consider `CN(C)c1ccc(Nc2cc(-c3cccc4ccccc34)ncn2)cc1`, for which the IC90 stood at 6.64 µM. Moreover, the IC50 (HEPG2TOX_HILL_SLOPE 1.74, HEPG2TOX_R_SQUARED 0.777, PBLUC_HILL_SLOPE 1.75, PBLUC_R_SQUARED 0.668, read-out: LUCIFERASE INFECTION ASSAY - IC50) came to 1.9 µM.

In the case of `COc1cccc(-c2ccc3nnc(-c4ccc5c(c4)OCO5)n3c2)c1`, the IC90 was 0.981 µM. Besides, the IC50 (HEPG2TOX_HILL_SLOPE 1.68, HEPG2TOX_R_SQUARED 0.984, PBLUC_HILL_SLOPE 2.05, PBLUC_R_SQUARED 0.784, read-out: LUCIFERASE INFECTION ASSAY - IC50) came to 0.337 µM.

Regarding `COc1ccc(-c2cn3c(-c4ccc5ncccc5c4)cnc3cn2)cn1`, the IC90 amounted to 4.4 µM. In addition, the IC50 (HEPG2TOX_HILL_SLOPE 1.73, HEPG2TOX_R_SQUARED 0.987, PBLUC_HILL_SLOPE 1.52, PBLUC_R_SQUARED 0.763, read-out: LUCIFERASE INFECTION ASSAY - IC50) came to 1.04 µM.

For `CN(C)CCNC(=O)c1ccc(-c2cn3c(-c4ccc(Cl)cc4)cnc3cn2)cc1`, the IC90 worked out at 3.79 µM. Besides, the IC50 (HEPG2TOX_HILL_SLOPE 1.7, HEPG2TOX_R_SQUARED 0.889, PBLUC_HILL_SLOPE 9.39, PBLUC_R_SQUARED 0.389, read-out: LUCIFERASE INFECTION ASSAY - IC50) amounted to 3 µM.

Regarding `Cc1ccc(C)n1-c1nc2ccc(C(=O)NCC(O)c3ccccc3)cc2s1` (centres undefined), the 90% effect concentration (IC90) was 4.67 µM. Moreover, the IC50 (HEPG2TOX_HILL_SLOPE 1.7, HEPG2TOX_R_SQUARED 0.986, PBLUC_HILL_SLOPE 2.65, PBLUC_R_SQUARED 0.703, read-out: LUCIFERASE INFECTION ASSAY - IC50) turned out to be 2.04 µM.

`Cc1sc2nc3c4ccccc4c(Cl)nn3c(=O)c2c1C`: the IC90 is > 10 µM. Also, the IC50 (HEPG2TOX_HILL_SLOPE 1.74, HEPG2TOX_R_SQUARED 0.905, PBLUC_HILL_SLOPE 1.87, PBLUC_R_SQUARED 0.353, read-out: LUCIFERASE INFECTION ASSAY - IC50) was 5.64 µM.

As for `COc1ccc(Nc2cc(C)nc(Nc3ccc(OC)cc3)n2)cc1`, the IC90 was determined as 3.93 µM. Also, the IC50 (HEPG2TOX_HILL_SLOPE 1.69, HEPG2TOX_R_SQUARED 0.922, PBLUC_HILL_SLOPE 13, PBLUC_R_SQUARED 0.323, read-out: LUCIFERASE INFECTION ASSAY - IC50) turned out to be 3.32 µM.

For the molecule `CCN(c1ccc(NC(=O)CCc2ccccc2Cl)cc1)C(C)C`, the IC90 is > 10 µM. Also, where the note is “HEPG2TOX_HILL_SLOPE 1.73, HEPG2TOX_R_SQUARED 0.92, read-out: LUCIFERASE INFECTION ASSAY - IC50”, the IC50 was > 10 µM.

Take `CCOc1cc2c(cc1OCC)CN(c1cnn(-c3nc4ccccc4[nH]3)c(=O)c1Cl)CC2`: the IC90 came out at 2.69 µM. Also, the IC50 (HEPG2TOX_HILL_SLOPE 1.71, HEPG2TOX_R_SQUARED 0.884, PBLUC_HILL_SLOPE 7.85, 14.7, PBLUC_R_SQUARED 0.450, 0.666, read-out: LUCIFERASE INFECTION ASSAY - IC50) was determined as 2.1 µM.

As to `CCc1ccccc1Nc1c(Cl)c(C)nc2ncnn12`, the IC90 was > 11.5 µM. Besides, the IC50 (HEPG2TOX_HILL_SLOPE 1.69, HEPG2TOX_R_SQUARED 0.869, PBLUC_HILL_SLOPE 4.69, PBLUC_R_SQUARED 0.317, read-out: LUCIFERASE INFECTION ASSAY - IC50) was 7.45 µM.

For the molecule `Cc1ccc(NCc2c(Cl)nc3sccn23)c(C)c1`, the IC90 is > 11.3 µM. Moreover, where the note is “HEPG2TOX_HILL_SLOPE 1.69, HEPG2TOX_R_SQUARED 0.916, PBLUC_HILL_SLOPE 2.14, PBLUC_R_SQUARED 0.29, read-out: LUCIFERASE INFECTION ASSAY - IC50”, the IC50 is 10.3 µM.

With `CC/C(=N\OC(=O)c1cccc(C(F)(F)F)c1)c1ccc(-c2ccccc2F)cc1`, the IC90 is > 7.94 µM. Moreover, the IC50 (HEPG2TOX_HILL_SLOPE 1.72, HEPG2TOX_R_SQUARED 0.909, PBLUC_HILL_SLOPE 3.88, PBLUC_R_SQUARED 0.158, read-out: LUCIFERASE INFECTION ASSAY - IC50) stood at 6.84 µM.

With `Cc1c(-c2ccccc2)sc(N)c1C#N`, the IC90 was > 15.4 µM. Further, the IC50 (HEPG2TOX_HILL_SLOPE 1.71, HEPG2TOX_R_SQUARED 0.831, PBLUC_HILL_SLOPE 15.7, PBLUC_R_SQUARED 0.066, read-out: LUCIFERASE INFECTION ASSAY - IC50) amounted to 14.9 µM.

Values taken from ChEMBL document CHEMBL4483862, “Open-source discovery of chemical leads for next-generation chemoprotective antimalarials” (2018).
